Legend:
[1] = tested on: ruminal microbial urease; assay: Urease inhibition assay (Berthelot alkaline phenol-hypochlorite method); format: biochemical, rumen bacteria of Chinese Holstein dairy cows
Experimental: Rumen fluid samples were collected from five Chinese Holstein dairy cows with permanent rumen fistula 3 h after feeding a total mixed ration in the morning. All the operations were conducted in accordance with the protocol approved by the Animal Care and Use Committee for Livestock of the Institute of Animal Sciences, Chinese Academy of Agricultural Sciences (Permit Number: IAS2019-14, Permit Date: 22-03-2019). All rumen fluid samples were filtered by a six layer sterilized medical gauze and mixed in a sterilized beaker before being evenly distributed into different 50 mL tubes and stored in liquid nitrogen. The deforested samples were centrifuged at 12,000× g for 10 min at 4 °C, then the supernatant was removed from the tube. The remaining sediments were resuspended in a HEPES buffer solution (pH 7.5, 50 mM) and then centrifuged at 12,000× g for 10 min at 4 °C. The supernatant was discarded and the remaining rumen bacteria were collected and stored at −80 °C for later urease extraction. All the sample handing processes were conducted on an ice bath. […]
In vitro urease inhibition screening assays were conducted to further narrow the virtual screened compounds for further IC50 determination and kinetic characterization. […] The ammonia that was produced was measured using 50 μL of a phenol reagent containing 10.0 g/L phenol and 50 mg/L of sodium nitroprusside, and 50 μL of alkali reagent containing 5 g/L sodium hydroxide and 8.4 mL/L of sodium hypochlorite solution, at 37 °C for 30 min. The absorbance of each well was measured at 625 nm by a micro plate spectrophotometer (Thermo Scientific Varioskan Flash G-282, Thermo Scientific, Waltham, MA, USA). The endogenous nitrogen (blank) was measured by adding a 70 μL HEPES buffer (pH 7.5, 50 mM) containing no urea and 20 μL methanol solution in the first 30 min of the reaction mixture. The 100% initial activity was determined by adding a 15 μL methanol solution in the first 30 min of the reaction mixture. […]

[2] = tested on: ruminal microbial urease; assay: Kinetic characterization of urease inhibition (nonlinear Michaelis-Menten fitting); format: biochemical, rumen bacteria of Chinese Holstein dairy cows
Experimental: Rumen fluid samples were collected from five Chinese Holstein dairy cows with permanent rumen fistula 3 h after feeding a total mixed ration in the morning. All the operations were conducted in accordance with the protocol approved by the Animal Care and Use Committee for Livestock of the Institute of Animal Sciences, Chinese Academy of Agricultural Sciences (Permit Number: IAS2019-14, Permit Date: 22-03-2019). All rumen fluid samples were filtered by a six layer sterilized medical gauze and mixed in a sterilized beaker before being evenly distributed into different 50 mL tubes and stored in liquid nitrogen. The deforested samples were centrifuged at 12,000× g for 10 min at 4 °C, then the supernatant was removed from the tube. The remaining sediments were resuspended in a HEPES buffer solution (pH 7.5, 50 mM) and then centrifuged at 12,000× g for 10 min at 4 °C. The supernatant was discarded and the remaining rumen bacteria were collected and stored at −80 °C for later urease extraction. All the sample handing processes were conducted on an ice bath. Before each urease inhibition assay, 2 g of rumen bacteria were taken from the fridge and resuspended in a HEPES buffer followed by lysis through a high-pressure cell press JG-1A (Ningbo Scientz Biotechnology Co., Ltd., Ningbo, China). The hollow cylindrical sample loading element was placed in −80 °C for 10 min before the high-pressure lysis at 22,000 psi. […] The kinetic of the compound was determined by varying the concentration of urea in the presence of different compound 6238-0047 concentrations of 0.25 and 0.5 mM in the assay mixture. […] Maximal initial velocities were determined from the initial linear portion of the absorbance up to 10 min after the addition of the enzyme. Kinetic parameters Km and Vmax were calculated by the nonlinear fitting of different substrate concentrations against the velocities of the reaction at each different concentrations of compound 6238-0047 using the GraphPad Prism software as mentioned before.

COc1ccc(-c2ccc(CCC(=O)O)n2NC(N)=O)cc1 [6238-0047, 3-[1-[(aminocarbonyl)amino]-5-(4-methoxyphenyl)-1H-pyrrol-2-yl] propanoic acid]
Percentage of inhibition against ruminal microbial urease ([1]; 0.5 mM compound, compared with other candidate compounds): superior ruminal microbial urease inhibition capacity | IC50 ([1]; ruminal microbial urease, 37 °C, 30 min, pH 7.5): 65.9 µM | Vmax ([2]; 0.25 mM of compound): 12.58 µM/min | Vmax ([2]; 0.5 mM of compound): 9.67 µM/min | Inhibition mode ([2]; from change of Km, Vmax and Vmax/Km): mixed type inhibitor
